Residues, ends and D or L forms follow the SMILES beside them.
How the values were obtained:
BB3 [1] = target: T1, BB3 (Homo sapiens, UniProt P32247); assay: Dynamic mass redistribution (DMR), concentration-response; assay type: cell-based
T1 construct: hIL-2Ra signal peptide (N); expressed in transfected cells
T1 sequence (P32247 2-399 limits assumed): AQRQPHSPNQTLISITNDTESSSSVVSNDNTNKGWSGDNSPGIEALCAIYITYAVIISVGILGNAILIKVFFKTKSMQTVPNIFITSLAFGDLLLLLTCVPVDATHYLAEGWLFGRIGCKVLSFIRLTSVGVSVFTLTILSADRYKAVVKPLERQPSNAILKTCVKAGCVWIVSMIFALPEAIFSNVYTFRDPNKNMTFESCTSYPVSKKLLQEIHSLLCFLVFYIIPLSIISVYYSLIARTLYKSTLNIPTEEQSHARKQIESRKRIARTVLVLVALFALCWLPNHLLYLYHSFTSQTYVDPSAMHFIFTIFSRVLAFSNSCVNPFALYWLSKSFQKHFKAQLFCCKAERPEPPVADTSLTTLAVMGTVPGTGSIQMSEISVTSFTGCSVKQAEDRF

BB3 [2] = target: T1, BB3; assay: Real-time receptor internalization (TR-FRET), concentration-response; assay type: cell-based
BB3 [3] = target: T2, BB3 (Homo sapiens, UniProt P32247); assay: β-arrestin recruitment (Tango), validation; assay type: cell-based
T2 construct: host or cells: HTLA cells (HEK293-derived)
T2 sequence (P32247 1-399): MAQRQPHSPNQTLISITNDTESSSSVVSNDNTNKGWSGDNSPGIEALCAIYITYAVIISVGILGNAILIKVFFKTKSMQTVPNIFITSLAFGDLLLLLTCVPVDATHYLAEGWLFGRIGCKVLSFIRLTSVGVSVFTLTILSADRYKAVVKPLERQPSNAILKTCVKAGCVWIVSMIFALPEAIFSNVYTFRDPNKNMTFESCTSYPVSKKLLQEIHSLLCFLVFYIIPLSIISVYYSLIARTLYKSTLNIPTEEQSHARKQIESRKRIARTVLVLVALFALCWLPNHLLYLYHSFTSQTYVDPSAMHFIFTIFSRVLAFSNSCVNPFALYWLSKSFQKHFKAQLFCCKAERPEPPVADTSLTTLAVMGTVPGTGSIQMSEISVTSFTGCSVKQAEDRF
Description: (§1) The peptide library was additionally screened against 120 GPCR targets in parallel, including all available orphan receptors and 27 known class A peptide receptors using the Tango assay platform ([Kroeze et al., 2015]). Briefly, HTLA cells (a HEK293 cell line stably expressing a tTA-dependent luciferase reporter and a β-arrestin2-TEV fusion gene) were plated 10,000 cells/well in poly-L-lysine–coated clear-bottom white 384-well plates in DMEM supplemented with 10% FBS, 100 U/ml penicillin and 100 μg/ml streptomycin, 2 μg/ml puromycin and 100 μg/ml hygromycin B. 24 hr later, cells were transfected with Tango GPCR constructs using the calcium phosphate method ([Jordan et al., 1996]). The next day, culture medium was changed to DMEM + 1% dFBS and 10 μM peptides were added for overnight stimulation. Bright-Glo solution (Promega) was incubated for 15–20 min at room temperature, and luminescence was counted using a Trilux luminescence counter (Wallac).
(§2) For subsequent peptide validation experiments using Tango assays, HTLA cells were transiently transfected in 10 cm dishes with the receptor of interest using polyethylenimine (PEI) ([Longo et al., 2013]). After 24 hr, 25,000 cells/well were plated in clear bottom, white-walled 384-well plates. Assays were performed as described above, with luminescence measured using an EnSpire 2300 Multimode plate reader (PerkinElmer). Luminescence counts were exported into Excel and were analyzed using GraphPad Prism 7.

BB3 [4] = target: T1, BB3; assay: IP1 accumulation (Gq/11), HTRF; assay type: cell-based; settings: BB3, mean, SEM and n
[5] = test system: 120 GPCR targets, including all available orphan receptors and 27 known class A peptide receptors; assay: Peptide library screen, β-arrestin recruitment (Tango, fold change, 10 μM); assay type: cell-based, human; settings: repeat hitters of the peptide library screen; the value names the known receptor(s) confirmed in the β-arrestin recruitment (Tango) screen
How it was run: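 HTLA cells (HEK293 with tTA-dependent luciferase and β-arrestin2-TEV) transiently transfected with Tango GPCR constructs, then stimulated overnight with 10 μM peptides in 1% dFBS medium. Luciferase luminescence read after 15–20 min Bright-Glo incubation at room temperature.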

OPRK1 = target: T3, OPRK1 (Homo sapiens, UniProt P41145); assay: β-arrestin recruitment (Tango), known peptide receptors; assay type: cell-based; settings: mean
T3 construct: host or cells: HTLA cells (HEK293-derived)

GPR68 = assay: Repeat of proposed literature pairing (mass redistribution and/or internalization); assay type: cell-based, human; settings: target GPR68
NPY5 = target: T4, NPY5 (Homo sapiens, UniProt Q15761); assay: β-arrestin recruitment (Tango), known peptide receptors; assay type: cell-based; settings: NPY5R; Emax and pEC50 n.d.; n = 3
T4 construct: host or cells: HTLA cells (HEK293-derived)
T4 sequence (Q15761 1-445): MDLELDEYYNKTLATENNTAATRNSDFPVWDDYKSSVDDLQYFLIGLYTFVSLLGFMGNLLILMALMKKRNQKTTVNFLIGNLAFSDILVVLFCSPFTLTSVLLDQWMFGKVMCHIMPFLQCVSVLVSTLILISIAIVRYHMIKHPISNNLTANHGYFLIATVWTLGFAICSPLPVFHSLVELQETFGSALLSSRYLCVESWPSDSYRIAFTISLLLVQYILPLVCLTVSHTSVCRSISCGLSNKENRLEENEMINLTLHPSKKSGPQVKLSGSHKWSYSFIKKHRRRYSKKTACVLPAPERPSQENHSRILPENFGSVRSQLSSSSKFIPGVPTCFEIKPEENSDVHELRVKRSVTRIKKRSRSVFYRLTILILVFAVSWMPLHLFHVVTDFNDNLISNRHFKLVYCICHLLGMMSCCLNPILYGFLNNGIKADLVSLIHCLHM
Description: as §1, §2

GPR183 = target: T5, GPR183 (Homo sapiens, UniProt P32249); assay: β-arrestin recruitment (Tango), indicative pairing; assay type: cell-based; settings: mean, n = 3
T5 construct: host or cells: HTLA cells (HEK293-derived)

MLNR = target: T6, MLNR (Homo sapiens, UniProt O43193); assay: β-arrestin recruitment (Tango), known peptide receptors; assay type: cell-based; settings: endogenous ligand(s) included in peptide library
T6 construct: host or cells: HTLA cells (HEK293-derived)
Excerpt: (§3) Supplement mmc6.xlsx, sheet "Peptide GPCR controls" | column: Confirmed?

GPR161 = target: T7, GPR161 (Homo sapiens, UniProt Q8N6U8); assay: β-arrestin recruitment (Tango), indicative pairing; assay type: cell-based; settings: mean, n = 3
T7 construct: host or cells: HTLA cells (HEK293-derived)

NPS = assay: β-arrestin recruitment (Tango), known peptide receptors; assay type: cell-based, human; settings: NPS receptor, endogenous ligand(s) included in peptide library
Excerpt: as §3

NTSR2 = assay: as above; assay type: cell-based, human; settings: Neurotensin not cyclized
Excerpt: as §3

NTSR1 = assay: as above; assay type: cell-based, human; settings: Neurotensin not cyclized
Excerpt: (§4) Supplement mmc6.xlsx, sheet "Peptide GPCR controls" | column: Confirmed?; Notes

OPRL1 = assay: as above; assay type: cell-based, human; settings: endogenous ligand(s) included in peptide library
Excerpt: as §3

HCTR2 = assay: as above; assay type: cell-based, human; settings: endogenous ligand(s) included in peptide library
Excerpt: as §3

GPR55 = GPR55 (Homo sapiens, UniProt Q9Y2T6)
NPY4R = assay: β-arrestin recruitment (Tango), known peptide receptors; assay type: cell-based, human; settings: endogenous ligand(s) included in peptide library
Excerpt: as §3

GPR1 (PathHunter cells) = GPR1 (PathHunter cells) (UniProt P46091)
[6] = target: GPR1 (Tango construct) (human) (UniProt P46091)
PRRP = assay: β-arrestin recruitment (Tango), known peptide receptors; assay type: cell-based, human
Excerpt: as §4

human GPCRs = target: human GPCRs; design: method as in Guide to Pharmacology database; settings: receptor PRLHR (prlhr_human, P49683); max reported value; ref Guide to Pharmacology database; cited from earlier work
Excerpt: Supplement mmc1.xlsx, sheet "HumanGPCRLigands" | column: pKi_value; pKd_value; pEC50_value; pIC50_value

GPR17 = target: T8, GPR17 (Homo sapiens, UniProt Q13304); assay: β-arrestin recruitment (Tango), indicative pairing; assay type: cell-based; settings: mean, n = 3
T8 construct: host or cells: HTLA cells (HEK293-derived)

NPSR = target: T9, NPSR (Homo sapiens, UniProt Q6W5P4); assay: β-arrestin recruitment (Tango), known peptide receptors; assay type: cell-based; settings: mean, n = 3
T9 construct: host or cells: HTLA cells (HEK293-derived)
Excerpt: (§5) Supplement mmc7.xlsx, sheet "Peptide validation data" | column: Emax; pEC50

NOP (OPRL1) = target: T10, NOP (OPRL1) (Homo sapiens, UniProt P41146); assay: as above; assay type: cell-based; settings: mean, n = 3
T10 construct: host or cells: HTLA cells (HEK293-derived)
Excerpt: as §5

OPRD1 = target: T11, OPRD1 (Homo sapiens, UniProt P41143); assay: as above; assay type: cell-based; settings: mean, n = 3
T11 construct: host or cells: HTLA cells (HEK293-derived)
Excerpt: as §5

T3 sequence (P41145 whole entry): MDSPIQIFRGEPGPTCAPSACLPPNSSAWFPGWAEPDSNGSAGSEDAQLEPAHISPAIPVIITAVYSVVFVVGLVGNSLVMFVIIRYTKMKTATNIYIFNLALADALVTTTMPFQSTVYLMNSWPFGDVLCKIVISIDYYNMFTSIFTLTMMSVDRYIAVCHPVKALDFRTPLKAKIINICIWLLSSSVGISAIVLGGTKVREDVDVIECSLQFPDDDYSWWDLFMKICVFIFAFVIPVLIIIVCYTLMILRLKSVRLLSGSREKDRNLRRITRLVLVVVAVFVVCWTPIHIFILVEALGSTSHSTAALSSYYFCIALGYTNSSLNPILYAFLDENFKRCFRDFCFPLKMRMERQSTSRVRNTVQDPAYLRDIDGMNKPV
T5 sequence (P32249 whole entry): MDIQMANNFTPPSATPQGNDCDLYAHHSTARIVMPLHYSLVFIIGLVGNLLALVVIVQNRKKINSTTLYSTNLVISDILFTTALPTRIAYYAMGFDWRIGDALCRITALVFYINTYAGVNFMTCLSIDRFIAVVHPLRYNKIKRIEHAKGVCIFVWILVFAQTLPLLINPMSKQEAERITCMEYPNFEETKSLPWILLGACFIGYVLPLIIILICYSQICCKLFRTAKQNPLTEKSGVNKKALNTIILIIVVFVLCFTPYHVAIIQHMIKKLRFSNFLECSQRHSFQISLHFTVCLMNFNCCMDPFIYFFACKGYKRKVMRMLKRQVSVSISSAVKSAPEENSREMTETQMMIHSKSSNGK
T9 sequence (Q6W5P4 whole entry): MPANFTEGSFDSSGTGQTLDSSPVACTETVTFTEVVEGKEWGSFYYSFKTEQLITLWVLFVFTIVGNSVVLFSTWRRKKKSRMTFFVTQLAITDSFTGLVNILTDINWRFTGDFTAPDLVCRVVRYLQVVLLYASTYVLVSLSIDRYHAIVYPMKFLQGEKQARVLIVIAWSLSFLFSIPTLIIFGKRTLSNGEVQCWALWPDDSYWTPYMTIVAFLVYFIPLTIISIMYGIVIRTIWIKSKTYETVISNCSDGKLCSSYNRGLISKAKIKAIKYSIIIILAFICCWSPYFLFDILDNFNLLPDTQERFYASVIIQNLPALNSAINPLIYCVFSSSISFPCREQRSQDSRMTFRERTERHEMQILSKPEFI
T8 sequence (Q13304 whole entry): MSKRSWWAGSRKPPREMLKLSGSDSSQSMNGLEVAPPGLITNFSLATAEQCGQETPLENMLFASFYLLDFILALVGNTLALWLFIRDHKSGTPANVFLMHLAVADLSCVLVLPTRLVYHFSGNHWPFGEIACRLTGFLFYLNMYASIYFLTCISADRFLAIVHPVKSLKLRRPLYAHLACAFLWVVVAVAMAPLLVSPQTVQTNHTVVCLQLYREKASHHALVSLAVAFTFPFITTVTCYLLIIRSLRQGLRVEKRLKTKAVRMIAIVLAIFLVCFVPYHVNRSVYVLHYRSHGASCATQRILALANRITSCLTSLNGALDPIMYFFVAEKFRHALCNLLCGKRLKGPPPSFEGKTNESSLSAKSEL
T7 sequence (Q8N6U8 whole entry): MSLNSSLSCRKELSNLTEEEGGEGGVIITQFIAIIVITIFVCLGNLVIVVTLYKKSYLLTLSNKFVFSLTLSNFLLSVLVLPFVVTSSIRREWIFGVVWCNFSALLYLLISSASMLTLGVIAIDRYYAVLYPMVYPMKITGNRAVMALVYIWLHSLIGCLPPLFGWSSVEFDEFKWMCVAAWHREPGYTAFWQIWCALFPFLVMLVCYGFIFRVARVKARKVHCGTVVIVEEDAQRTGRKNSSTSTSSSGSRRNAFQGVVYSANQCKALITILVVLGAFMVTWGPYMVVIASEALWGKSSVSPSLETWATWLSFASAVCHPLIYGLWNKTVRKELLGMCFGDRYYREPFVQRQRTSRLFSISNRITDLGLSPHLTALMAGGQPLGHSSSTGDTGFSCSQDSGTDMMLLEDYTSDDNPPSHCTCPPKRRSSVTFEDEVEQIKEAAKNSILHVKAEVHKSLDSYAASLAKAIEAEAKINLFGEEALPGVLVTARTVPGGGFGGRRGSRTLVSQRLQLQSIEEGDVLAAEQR
T10 sequence (P41146 whole entry): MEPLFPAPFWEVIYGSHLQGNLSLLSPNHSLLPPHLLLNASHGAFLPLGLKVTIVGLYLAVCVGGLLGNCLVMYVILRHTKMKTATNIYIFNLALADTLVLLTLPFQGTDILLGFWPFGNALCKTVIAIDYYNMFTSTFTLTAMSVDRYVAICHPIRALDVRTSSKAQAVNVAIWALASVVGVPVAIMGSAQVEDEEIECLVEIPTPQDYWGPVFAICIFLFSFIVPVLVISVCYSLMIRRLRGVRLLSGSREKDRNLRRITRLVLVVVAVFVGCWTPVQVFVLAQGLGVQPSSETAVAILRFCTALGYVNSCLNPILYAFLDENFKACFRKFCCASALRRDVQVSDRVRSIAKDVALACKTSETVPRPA
T11 sequence (P41143 whole entry): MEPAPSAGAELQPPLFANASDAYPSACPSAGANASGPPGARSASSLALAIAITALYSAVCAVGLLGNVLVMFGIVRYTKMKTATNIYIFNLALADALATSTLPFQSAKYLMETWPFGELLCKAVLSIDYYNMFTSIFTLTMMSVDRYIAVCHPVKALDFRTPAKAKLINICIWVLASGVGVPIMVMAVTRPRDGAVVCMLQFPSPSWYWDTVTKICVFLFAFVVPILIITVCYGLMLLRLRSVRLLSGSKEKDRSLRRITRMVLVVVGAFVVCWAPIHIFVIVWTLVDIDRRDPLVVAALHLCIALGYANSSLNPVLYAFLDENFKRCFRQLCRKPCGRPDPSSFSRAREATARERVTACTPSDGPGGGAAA
GPR1 (Tango construct) (human), sequence (P46091 whole entry): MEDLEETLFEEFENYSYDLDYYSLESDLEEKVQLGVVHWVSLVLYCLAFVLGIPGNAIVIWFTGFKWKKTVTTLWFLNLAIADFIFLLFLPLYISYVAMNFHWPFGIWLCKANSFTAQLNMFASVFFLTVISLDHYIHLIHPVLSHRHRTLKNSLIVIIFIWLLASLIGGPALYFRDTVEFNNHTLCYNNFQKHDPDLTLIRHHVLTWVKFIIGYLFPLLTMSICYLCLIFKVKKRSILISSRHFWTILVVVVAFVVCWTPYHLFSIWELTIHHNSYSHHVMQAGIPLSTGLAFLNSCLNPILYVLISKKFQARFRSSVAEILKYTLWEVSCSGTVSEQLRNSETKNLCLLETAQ
GPR1 (PathHunter cells), sequence (P46091 whole entry): as above
GPR55, sequence (Q9Y2T6 whole entry): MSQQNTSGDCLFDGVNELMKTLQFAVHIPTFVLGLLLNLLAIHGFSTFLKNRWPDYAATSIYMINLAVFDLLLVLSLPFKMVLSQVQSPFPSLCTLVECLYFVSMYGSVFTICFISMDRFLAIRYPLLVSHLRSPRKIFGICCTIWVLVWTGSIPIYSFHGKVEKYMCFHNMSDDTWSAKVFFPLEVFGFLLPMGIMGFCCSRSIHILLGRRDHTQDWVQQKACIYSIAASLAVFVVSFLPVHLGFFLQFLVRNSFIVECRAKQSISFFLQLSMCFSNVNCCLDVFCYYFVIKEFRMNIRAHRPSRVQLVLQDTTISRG
T6 sequence (O43193 whole entry): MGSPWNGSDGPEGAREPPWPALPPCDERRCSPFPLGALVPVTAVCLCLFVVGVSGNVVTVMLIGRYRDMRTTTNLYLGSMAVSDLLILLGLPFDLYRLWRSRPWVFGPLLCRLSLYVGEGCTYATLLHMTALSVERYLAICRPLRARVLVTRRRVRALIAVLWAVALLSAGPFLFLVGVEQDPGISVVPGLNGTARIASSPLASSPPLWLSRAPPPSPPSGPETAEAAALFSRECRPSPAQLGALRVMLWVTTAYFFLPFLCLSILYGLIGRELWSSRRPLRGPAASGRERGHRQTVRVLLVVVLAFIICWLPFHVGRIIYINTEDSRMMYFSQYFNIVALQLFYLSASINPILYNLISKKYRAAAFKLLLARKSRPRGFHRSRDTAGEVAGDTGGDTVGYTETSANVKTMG

In the case of `CSCC[C@H](NC(=O)[C@H](Cc1ccccc1)NC(=O)CNC(=O)CNC(=O)[C@@H](N)Cc1ccc(O)cc1)C(=O)N[C@@H](CCCNC(=N)N)C(=O)N[C@@H](CCCNC(=N)N)C(=O)N[C@H](C(=O)NCC(=O)N[C@@H](CCCNC(=N)N)C(=O)N1CCC[C@H]1C(=O)N[C@@H](CCC(=O)O)C(=O)N[C@@H](Cc1c[nH]c2ccccc12)C(=O)N[C@@H](Cc1c[nH]c2ccccc12)C(=O)N[C@@H](CCSC)C(=O)N[C@@H](CC(=O)O)C(=O)N[C@@H](Cc1ccc(O)cc1)C(=O)N[C@@H](CCC(N)=O)C(=O)N[C@@H](CCCCN)C(=O)N[C@@H](CCCNC(=N)N)C(=O)N[C@@H](Cc1ccc(O)cc1)C(=O)NCC(=O)NCC(=O)N[C@@H](Cc1ccccc1)C(=O)N[C@@H](CC(C)C)C(=O)O)C(C)C` [Peptide 158, Peptide E] (H-YGGFMRRVGRPEWWMDYQKRYGGFL-OH), the EC50 (BB3 [1]) is reported as over 10 µM, the EC50 (BB3 [1]; pEC50, DMR (peak), BB3, mean, SEM and n) is reported as 72.4 µM and the “Emax, Internalization (AUC)” value (BB3 [2]) is reported as 16.0. For the same compound, the EC50 (BB3 [3]; BB3, mean, SEM and n, read-out: pEC50, Tango (fold over basal) (converted)) was 93.3 µM, the EC50 (BB3 [3]; HTLA cells transiently transfected, overnight stimulation, luciferase, mean ± SEM of 3-4 independent experiments in triplicate, read-out: pEC50, β-arrestin recruitment (Tango), BB3 (converted)) was over 10 µM and the “Emax, IP1” value (BB3 [4]) was 164.0 nM. The EC50 (BB3 [4]; pEC50, IP1 (nM)) was 6760 nM, the “Confirmation of known target in Tango” value [5] was “kappa, mu” and the “Emax, Tango (fold over basal)” value (OPRK1; n = 3) was 5.0 fold over basal. It also gave an EC50 (OPRK1; n = 3, read-out: pEC50, Tango (fold over basal) (converted)) of 1.35 µM.

For `Nc1nc(NCc2ccccc2)nc(-c2ccccc2CO)n1` [ZINC67740571 (ogerin)], the “Comment (response in DMR / internalization assays)” value (GPR68) was “Robust response in DMR, no response in internalization assay” and the “Active in DMR/internalization” value (GPR68; reported ligand tested on receptor-expressing cell line) was “Yes (DMR)”.

In the case of KGGFSFRF [Peptide 31], the “Comment, Tango (fold over basal)” value (NPY5) is reported as “Response >1uM; part of QRFP43”, the “Emax, Tango (fold over basal)” value (GPR183) is reported as 1.7 fold over basal and the “pEC50, Tango (fold over basal)” value (GPR183) is reported as 8.61.

For Motilin, the “Confirmed? (confirmation of b-arrestin recruitment)” value (“Confirmed?” below) (MLNR) was “Yes”.

With NWTPQAMLYLKGAQ [Peptide 95] the “Emax, Tango (fold over basal)” value (GPR161) was 1.4 fold over basal and the “pEC50, Tango (fold over basal)” value (GPR161) was 6.57.

For Neuropeptide S (SFRNGVGTGMKKTSFQRAKS), the “Confirmed?” value (NPS) was “No”.

For Neurotensin, the “Confirmed?” value (NTSR2) was “No”, the “Confirmed?” value (NTSR1; Tango) was “Yes” and the “Notes (b-arrestin recruitment response)” value (NTSR1; validation) was “Neurotensin not cyclized; weak activation in validation”.

For Nociceptin/orphanin FQ, the “Confirmed?” value (OPRL1) was “Yes”.

For Orexin-B, the “Confirmed?” value (HCTR2) was “Yes”.

With PACAP27 (peptide) the pEC50 at GPR55 (internalization or mass redistribution; assay not given) (GPR55) was 9.51 pEC50.

In the case of Pancreatic hormone (PH), the “Confirmed?” value (NPY4R) is reported as “No”.

Peptide 141 (Osteocrin_(-2-19)) gave a pEC50 in PathHunter β-arrestin recruitment assay (GPR1 (PathHunter cells)) of 6.18 pEC50 and a pEC50 in Tango β-arrestin recruitment assay [6] of 5.6 pEC50.

For Peptide YY (PYY), the “Confirmed?” value (NPY4R) was “No”.

In the case of PrRP-31, the “Confirmed?” value (PRRP; endogenous ligand(s) included in peptide library, Tango) is given as “Yes”, the “Notes (b-arrestin recruitment response)” value (PRRP; screen and validation) is given as “No response in screen, small response in validation” and the pKi_value (human GPCRs) is given as 9.2.

With “RHVNHSATEALGELRERAPGQGTNGFQLLRHAV [Peptide 192]” the “Emax, Tango (fold over basal)” value (GPR17) was 1.3 fold over basal and the “pEC50, Tango (fold over basal)” value (GPR17) was 9.08.

For SFRNGVGSGVKKTSF [Peptide 107], the “Emax, Tango (fold over basal)” value (NPSR) was 2.2 fold over basal and the “pEC50, Tango (fold over basal)” value (NPSR) was 6.03.

With TLGPQAHSLALQSVDLLFRP [Peptide 132] the “Emax, Tango (fold over basal)” value (NOP (OPRL1)) was 8.8 fold over basal and the “pEC50, Tango (fold over basal)” value (NOP (OPRL1)) was 4.82.

With VLDQLSA [Peptide 25] the “Emax, Tango (fold over basal)” value (OPRD1) was 5.0 fold over basal and the “pEC50, Tango (fold over basal)” value (OPRD1) was 5.58.

Source: article PMC6838683, “Discovery of Human Signaling Systems: Pairing Peptides to G Protein-Coupled Receptors” (Cell, 2019)
